Here are results for two molecules from patent publication US6710052B2, “Pyrimidine compounds” (AstraZeneca, priority 2000, dated 2004).

The target of assay [1] is T1, CDK4/Cyclin D1 (Homo sapiens, UniProt P11802).
T1 construct: made in house; host or cells: Sf21 insect cells, baculovirus co-infection (pVL1393); the GST-Rb substrate was made in E. coli BL21 (DE3) pLysS
Description: CDK4 Inhibition Assay (Scintillation Proximity Assay, GST-Retinoblastoma substrate). Type of assay: biochemical. Particulars: in vitro kinase assay; read-out: CDK4 inhibitory activity IC50. On the procedure:
The compounds were tested in an in vitro kinase assay in 96 well format using Scintillation Proximity Assay (SPA—obtained from Amersham) for measuring incorporation of [γ-33-P]-Adenosine Triphosphate into a test substrate (GST-Retinoblastoma). In each well was placed the compound to be tested (diluted in DMSO and water to correct concentrations) and in control wells either p 16 as an inhibitor control or DMSO as a positive control.
Approximately 0.51 μl of CDK4/Cyclin D1 partially-purified enzyme (amount dependent on enzyme activity) diluted in 25 μl incubation buffer was added to each well then 20 μl of GST-Rb/ATP/ATP33 mixture (containing 0.5 μg GST-Rb and 0.2 μM ATP and 0.14 μCi [γ-33-P]-Adenosine Triphosphate), and the resulting mixture shaken gently, then incubated at room temperature for 60 minutes. […]
The plates were sealed with Topseal-S plate sealers, left for two hours then spun at 2500 rpm, 1124× g., for 5 minutes. The plates were read on a Topcount for 30 seconds per well. […]
E. coli paste was resuspended in 10 ml/g of NETN buffer (50 mM Tris pH 7.5, 120 mM NaCl, 1 mM EDTA, 0.5%v/v NP-40, 1 mM PMSF, 1 ug/ml leupeptin, 1 ug/ml aprotinin and 1 ug/ml pepstatin) and sonicated for 2×45 seconds per 100 ml homogenate. […] The final product was analysed by Sodium Dodeca Sulfate (SDS) PAGE (Polyacrylamide gel) using 8-16% Tris-Glycine gels (Novex, San Diego, USA). […]
Background: Scintillation proximity formats need no separation of bound from free tracer.

Assay [2] deals with T2, human Focal Adhesion Kinase (FAK) (Homo sapiens, UniProt Q05397).
T2 construct: FAK (full length human cDNA described by Andre et al); made in house; host or cells: Sf21 insect cells, recombinant baculovirus (pFastbac 1)
T2 sequence (Q05397 whole entry): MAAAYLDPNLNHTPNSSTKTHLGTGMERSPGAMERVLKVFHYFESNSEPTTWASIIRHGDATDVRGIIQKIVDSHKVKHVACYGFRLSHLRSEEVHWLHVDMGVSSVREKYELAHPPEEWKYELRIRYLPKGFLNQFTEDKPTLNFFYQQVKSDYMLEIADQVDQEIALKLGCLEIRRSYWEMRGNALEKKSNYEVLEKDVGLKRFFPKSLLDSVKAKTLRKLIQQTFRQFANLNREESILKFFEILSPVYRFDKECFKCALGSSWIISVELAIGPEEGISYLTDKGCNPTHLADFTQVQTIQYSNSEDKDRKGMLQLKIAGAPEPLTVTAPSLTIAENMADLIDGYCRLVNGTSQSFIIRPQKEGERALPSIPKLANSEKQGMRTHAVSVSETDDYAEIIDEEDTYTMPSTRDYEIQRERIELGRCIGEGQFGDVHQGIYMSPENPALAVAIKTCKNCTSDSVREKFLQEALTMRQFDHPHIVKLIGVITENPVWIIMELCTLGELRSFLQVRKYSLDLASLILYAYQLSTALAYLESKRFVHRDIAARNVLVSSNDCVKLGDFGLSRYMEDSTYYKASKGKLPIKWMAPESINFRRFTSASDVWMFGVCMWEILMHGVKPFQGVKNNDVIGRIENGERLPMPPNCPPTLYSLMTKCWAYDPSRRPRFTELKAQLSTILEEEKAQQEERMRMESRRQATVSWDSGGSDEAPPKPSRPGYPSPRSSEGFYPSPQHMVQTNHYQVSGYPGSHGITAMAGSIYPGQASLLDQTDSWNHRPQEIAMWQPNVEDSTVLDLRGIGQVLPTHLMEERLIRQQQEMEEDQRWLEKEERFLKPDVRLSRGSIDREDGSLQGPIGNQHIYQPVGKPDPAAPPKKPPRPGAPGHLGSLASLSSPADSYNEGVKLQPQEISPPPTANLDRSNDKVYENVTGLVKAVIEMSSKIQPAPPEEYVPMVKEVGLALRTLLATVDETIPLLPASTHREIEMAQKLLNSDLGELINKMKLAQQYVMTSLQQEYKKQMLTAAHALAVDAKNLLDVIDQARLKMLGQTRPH
Kind of assay: FAK3 Kinase Inhibition Assay. Type of assay: biochemical. Particulars: in vitro enzyme assay; read-out: FAK inhibitory activity IC50. An excerpt: FAK3 Kinase Inhibition Assay
This assay determines the ability of a test compound to inhibit tyrosine kinase activity of human Focal Adhesion Kinase (FAK).
DNA encoding FAK is obtained by total gene synthesis (Edwards M, International Biotechnology Lab 5(3), 19-25, 1987) or by cloning. These are then expressed in a suitable expression system to obtain polypeptide with tyrosine kinase activity.
Active FAK protein has been previously expressed in a baculovirus system using a similar N-terminal 6-histidine tag (Protein Expression And Purification, 1996, 7: 12-18). The human FAK cDNA was cloned into the baculovirus transplacement vector, pFastbac 1 (Life Technologies), and the recombinant construct was co-transfected into insect cells (for example Spodoptera frugiperda 21(Sf21)) with viral DNA to prepare recombinant baculovirus (details of the methods for the assembly of recombinant DNA molecules and the preparation and use of recombinant baculovirus can be found in standard texts for example Sambrook et al, 1989, Molecular cloning—A Laboratory Manual, 2nd edition, Cold Spring Harbour Laboratory Press and O'Reilly et al, 1992, Baculovirus Expression Vectors—A Laboratory Manual, W. H. Freeman and Co, New York. Details specific to the use of the pFastbac (‘Bac to Bac’) system are provided in Anderson et al., 1995, FOCUS (Life Technologies Bulletin Magazine), 17, p53.) […]

T1 sequence (P11802 whole entry): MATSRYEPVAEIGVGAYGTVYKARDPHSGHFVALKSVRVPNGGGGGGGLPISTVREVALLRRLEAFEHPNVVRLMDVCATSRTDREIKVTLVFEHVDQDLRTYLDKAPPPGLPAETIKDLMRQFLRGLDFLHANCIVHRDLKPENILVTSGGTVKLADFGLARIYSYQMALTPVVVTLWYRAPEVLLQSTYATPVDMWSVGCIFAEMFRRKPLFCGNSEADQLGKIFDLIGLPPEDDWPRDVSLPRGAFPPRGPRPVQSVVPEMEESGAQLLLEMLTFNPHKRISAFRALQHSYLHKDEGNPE
T1 sequence (P24385 whole entry partner): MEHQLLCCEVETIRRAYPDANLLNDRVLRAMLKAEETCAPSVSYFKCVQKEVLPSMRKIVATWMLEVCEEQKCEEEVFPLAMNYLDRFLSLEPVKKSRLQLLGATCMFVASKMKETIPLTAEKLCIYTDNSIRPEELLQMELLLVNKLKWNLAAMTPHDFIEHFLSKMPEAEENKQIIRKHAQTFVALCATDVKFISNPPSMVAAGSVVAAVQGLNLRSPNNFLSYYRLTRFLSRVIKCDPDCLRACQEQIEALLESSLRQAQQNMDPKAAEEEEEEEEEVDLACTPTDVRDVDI

A word on the IC50: it is the concentration needed to halve the response being measured. As for `COc1ccc(Oc2nc(Nc3ccc(OCC(O)CNC(C)C)cc3)ncc2F)cc1` (centres unmarked) [Example 13], the half-inhibitory concentration (IC50) in assay [1] amounted to 896 nM.
In the case of `CN(C)CC(O)COc1ccc(Nc2ncc(Br)c(Sc3ccccc3)n2)cc1` (centres unmarked) [Example 14, 5-Bromo-2-{4-[2-hydroxy-3-(N,N-dimethylamino)propoxy]anilino}-4-(phenylthio)pyrimidine], the IC50 in assay [2] turned out to be 366 nM.
